In a melting point compilation (Tetko et al.; mined from patent text by program, amines drawn as free bases though some values may be those of a salt):

SMILES | melting point [°C]
O=C1C2CCCC2=Nc2ccccc2N1Cc1cccc([N+](=O)[O-])c1 (stereo unspecified) | 124 to 126
Cc1ccnc2c1nc(-c1cccnc1N)n2-c1ccc(CN)cc1 | 210 to 212
COc1cc(C(=O)c2ncc3ccc(NC(C)=O)cn23)ccc1[N+](=O)[O-] | 257
Cc1ccc(NC(=O)c2cc(C#N)cc(C)n2)nc1 | 196
CC(C)(C)C(NC(=O)C(=O)Nc1cccnc1)NC(=O)c1ccc(Cl)cc1 (stereo unspecified) | 168 to 170
CN(CCCCCCNC(=O)NCCCOc1cccc(CN2CCCCC2)c1)CCN(Cc1ccc(F)cc1)c1ccccn1 | 65 to 69
Cc1c(C)c(C=O)c2c(c1C)CC(C)(C)O2 | 87 to 88
CNC(=O)c1cccc(F)c1Nc1nc(Nc2ccc3c(c2)C(C)(C)CCC(=O)N3)ncc1Cl | 153
c1cc(-c2n[nH]c3c2Cc2ccc(CN4CCCC4)cc2-3)cs1 | 133 to 134
CCn1cc(C(=O)O)c(=O)c2cc(F)c(N3CCN(C)CC3)nc21 | 228 to 230
CN1CCN(c2cc(Cl)cc3c2c(=O)n(Cc2ccc(C#N)cc2)c(=O)n3Cc2ccccc2)CC1 | 99 to 105
CCCc1ccc(C(=O)Nc2ccc(C(C)=O)cc2)cc1 | 174 to 176
CC(=O)OCC1OC(n2c(Cl)c(C#N)c3cc(Cl)c(Cl)cc32)C(O)C1O (stereo unspecified) | 103 to 104
O=C(Nc1ccc(Cl)cc1)C1=C(C(=O)Nc2cc(OC3CCCC3)c(Cl)cc2F)CCCC1 | 221 to 222
COC(=O)NNC(=S)Cc1ccc(F)cc1 | 150 to 152
CC(=O)Oc1ccc(C(=O)Nc2ccc3ccc(Cl)nc3n2)cc1 | 220
CC(C)(C)c1ccc(S(=O)(=O)Nc2ncnc(Cl)c2Oc2ccccc2)cc1 | 143 to 144
Cc1cc(Nc2cncc(Nc3cccc(NC(=O)c4ccccc4)c3)n2)n[nH]1 | 243 to 244
O=C(C[N+](=O)[O-])OCCSc1ccccc1 | 22 to 24
c1ccc2c(c1)c(N1CCOCC1)nc1c(-c3nc(C4CC4)no3)ncn12 | 189 to 191
CC1(C)C(=NO)C(c2ccccc2)=C1c1ccc(S(C)(=O)=O)cc1 | 217 to 220
O=C(O)CCCCCCCCNS(=O)(=O)c1cccc(Cl)c1 | 112 to 113
CC(=O)c1ccc(-c2nc(=O)c3ccccc3s2)cc1 | 198
CSc1ccccc1NC(=O)Nc1ccc(N2CCN(C(=O)Nc3ccc(OCCO)cc3C(F)(F)F)CC2)cc1 | 115 to 116

SMILES | melting point [°C]
CCOC(=O)COc1ccc(C(C)=O)cc1NC(=O)c1ccc(OCCCCc2ccccc2)cc1 | 105 to 107
COC(=O)c1cc(-c2ccccn2)n(-c2ccc(Cl)nn2)n1 | 164 to 165
O=C(CCl)Nc1nc(C(Cl)(Cl)Cl)ns1 | 146
COc1cccc(C(=O)Nc2ccc3c(c2)CCCC3=O)c1 | 142 to 143
COc1cc2c(cc1OC)[C@@H]1CCCC[C@@H]1N=C2c1ccc(C(=O)OCC2CC2)cc1 (racemic) | 147 to 148
COc1ccc(S(=O)(=O)Nc2ccccc2/C=C/c2ccncc2C)cc1 | 183 to 185
Cc1nc2ccc(N3CCN[C@H](C)C3)nn2c1-c1ccnc2[nH]ccc12 | 202 to 204
CCCCc1ncc(C(=O)OC)c(=O)[nH]1 | 153 to 155
Cc1nn(-c2cc(C(F)(F)F)ccc2Cl)cc1C(=O)O | 206 to 208
CC1(C)O[C@@H](CC(=O)O)C[C@@H](C=Cc2ccccc2)O1 (relative stereo) | 153 to 155
Cc1c(Br)ccc(N)c1S(C)(=O)=O | 103 to 106
Cc1nnc2n1-c1ccc(C#CCN3C(=O)C4CC=CCC4C3=O)cc1C(c1ccccc1F)=NC2 (stereo unspecified) | 259 to 261
COc1cc2ncnc(Nc3cccc4ccccc34)c2cc1OC | 271 to 273
Cc1cc([N+](=O)[O-])ccc1N=C1SC(=O)CN1CC(C)C | 152
O=C1OC(Br)c2cc(Br)ccc21 (stereo unspecified) | 100
O=C(OCC(OC(=O)c1ccccc1)c1nc2c(C(F)(F)F)cccc2c(O)c1C(=O)Nc1nccs1)c1ccccc1 (stereo unspecified) | 240
Fc1ccc(CN2CCC(Nc3ccc(C(F)(F)F)nn3)CC2)cc1F | 168 to 169
CN1CCC(c2c3n(c4ccc(O)cc24)CCC3)CC1 | > 250
COc1ccccc1N(CC(=O)N(C)c1ccccc1)C(=O)CNC(=O)Nc1cccc(C)c1 | 212
COc1cn(-c2cccc(-c3cccnc3)c2F)nc(-c2ccnn2-c2ccccc2)c1=O | 147 to 153
CCc1nc(-c2ccccc2)c(NC(=O)Nc2ccccc2)s1 | 171 to 173
O=c1c(Br)c(CCC2CC2)nc2ccccn12 | 162 to 164
CCOC(=O)C(Cc1c(OCC)noc1-c1ncn(C(c2ccccc2)(c2ccccc2)c2ccccc2)n1)(NC(C)=O)C(=O)OCC | 145 to 149
O=C(O)c1cnn2c(C(F)F)cc(-c3ccc(C(F)(F)F)c(F)c3)nc12 | 233

SMILES | melting point [°C]
CC(C)NCC(O)COc1ccc2c(c1)CCN(C=O)C2 (stereo unspecified) | 56.6 to 58
Nc1cc(Cl)cc(Cl)c1C(=O)NCc1ccccc1Br | 163 to 167
CN1C(=O)C2(COc3cc4c(cc32)OCCO4)c2c(NC(=O)NC3CCCC3)cccc21 (stereo unspecified) | 133 to 135
CC(=O)Nc1ccc(Sc2c(-c3ccc(S(C)(=O)=O)cc3)cnn(CC(F)(F)F)c2=O)cc1 | 191 to 193
O=[N+]([O-])c1ccc(F)c2ccccc12 | 75 to 76
CN1CCC(c2c(O)cc(O)c3c(=O)cc(-c4ccccc4Cl)oc23)C1CS (stereo unspecified) | 205 to 206
Nc1cccc(N)c1Oc1ccccc1 | 110 to 111
CC1CCC(=O)N1CC(=O)NCCN(C(C)C)C(C)C (stereo unspecified) | 73 to 74
O=C(COc1ccc([N+](=O)[O-])cc1)OCCOC(=O)COc1ccc([N+](=O)[O-])cc1 | 118 to 121
Cc1nn(C2(F)C=CC([N+](=O)[O-])=CC2)c(=O)n1C(F)F (stereo unspecified) | 82 to 83
Nc1c(CC(=O)O)cccc1S(=O)(=O)c1ccc(Cl)cc1 | 139 to 141
CC1=NN(C(=O)c2ccccc2Cl)C2(O)CCCC12 (stereo unspecified) | 147 to 150
CCOC(=O)C1(Br)Oc2ccccc2OC1Br (stereo unspecified) | 102
NCC(=O)Nc1ccc(Br)cc1C(=NCCO)c1ccccc1F | 167 to 168
CCN(CC)CCN1CCN(c2ccc(N3C[C@H](CNC(C)=O)OC3=O)cc2F)CC1 | 131 to 133
Fc1ccc(-c2cc(Cl)ncn2)c(F)c1 | 65 to 69
c1ccc(-c2nnc3n2-c2ccccc2Cn2cccc2-3)nc1 | 255 to 257
O=C(Nc1cccc(Cl)c1)ONC1=Nc2ccc(Cl)cc2C(c2ccccc2)=NC1 | 158 to 159
NC(=O)c1cc(-n2cncn2)ccc1N | 216 to 218
CN(CC1CCCCC1)C(=O)c1ccc2nonc2c1 | 71 to 72
OCCCc1ccc2ccccc2c1OCc1ccccc1 | 80 to 81
CC(C)(C)NS(=O)(=O)c1cccc(NC(=O)c2cnn3c(C4CC4)cc(-c4ccc(Cl)cc4)nc23)c1 | 238 to 239
CC(C)N=CN1c2ccccc2Cc2ccccc21 | 150
